Columns and labels:
[1] = target: 5-hydroxytryptamine receptor 2B (Homo sapiens) (UniProt P41595); details: Compound concentration 10.0 uM
[2] = target: Cyclin-dependent kinase 2 (Homo sapiens) (UniProt P24941); details: Compound concentration 1000.0 nM
[3] = tested on: Receptor-type tyrosine-protein kinase FLT3 (Homo sapiens), P36888 [D835H]; details: Compound concentration 1000.0 nM
[4] = target: Receptor-interacting serine/threonine-protein kinase 1 (Homo sapiens) (UniProt Q13546); details: Compound concentration 1000.0 nM
Sequence of Receptor-interacting serine/threonine-protein kinase 1 (Homo sapiens) (Q13546 whole entry): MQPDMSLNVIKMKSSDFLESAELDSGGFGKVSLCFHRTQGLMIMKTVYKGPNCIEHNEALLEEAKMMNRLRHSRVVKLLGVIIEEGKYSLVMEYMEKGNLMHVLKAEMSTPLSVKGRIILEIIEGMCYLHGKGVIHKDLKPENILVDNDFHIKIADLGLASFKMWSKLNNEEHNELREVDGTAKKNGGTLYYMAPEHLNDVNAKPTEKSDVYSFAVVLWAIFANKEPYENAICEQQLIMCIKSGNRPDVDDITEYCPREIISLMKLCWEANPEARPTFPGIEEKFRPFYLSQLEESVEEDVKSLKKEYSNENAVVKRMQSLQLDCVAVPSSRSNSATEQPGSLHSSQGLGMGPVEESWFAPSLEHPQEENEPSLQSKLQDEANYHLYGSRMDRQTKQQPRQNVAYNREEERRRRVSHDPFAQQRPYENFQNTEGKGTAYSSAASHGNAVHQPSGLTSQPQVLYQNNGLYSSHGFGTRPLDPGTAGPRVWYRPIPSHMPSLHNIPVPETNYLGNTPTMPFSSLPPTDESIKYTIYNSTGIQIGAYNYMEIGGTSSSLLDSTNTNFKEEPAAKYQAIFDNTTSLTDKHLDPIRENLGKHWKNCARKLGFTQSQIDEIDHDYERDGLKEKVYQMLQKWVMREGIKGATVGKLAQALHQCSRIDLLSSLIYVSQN

[5] = target: Angiopoietin-1 receptor (Homo sapiens) (UniProt Q02763); details: Compound concentration 1000.0 nM
[6] = target: Serine/threonine-protein kinase 32C (Homo sapiens) (UniProt Q86UX6); details: Compound concentration 1000.0 nM
[7] = tested on: Mast/stem cell growth factor receptor Kit (Homo sapiens), P10721 [V559D,V654A]; details: Compound concentration 1000.0 nM
[8] = target: Alpha-2C adrenergic receptor (Homo sapiens) (UniProt P18825); details: Compound concentration 10.0 uM
[9] = target: Leukocyte tyrosine kinase receptor (Homo sapiens) (UniProt P29376); details: Compound concentration 1000.0 nM
[10] = target: Non-receptor tyrosine-protein kinase TNK1 (Homo sapiens) (UniProt Q13470); details: Compound concentration 1000.0 nM
[11] = target: Misshapen-like kinase 1 (Homo sapiens) (UniProt Q8N4C8); details: Compound concentration 1000.0 nM
[12] = target: 5-hydroxytryptamine receptor 3A (Homo sapiens) (UniProt P46098); details: Compound concentration 10.0 uM
[13] = target: Tyrosine-protein kinase JAK1 (Homo sapiens) (UniProt P23458); details: Compound concentration 1000.0 nM
[14] = target: Tyrosine-protein kinase Yes (Homo sapiens) (UniProt P07947); details: Compound concentration 1000.0 nM
[15] = target: Serine/threonine-protein kinase PAK 2 (Homo sapiens) (UniProt Q13177); details: Compound concentration 1000.0 nM
[16] = target: Casein kinase I isoform delta (Homo sapiens) (UniProt P48730); details: Compound concentration 1000.0 nM
Sequence of Casein kinase I isoform delta (Homo sapiens) (P48730 whole entry, looked up, canonical isoform): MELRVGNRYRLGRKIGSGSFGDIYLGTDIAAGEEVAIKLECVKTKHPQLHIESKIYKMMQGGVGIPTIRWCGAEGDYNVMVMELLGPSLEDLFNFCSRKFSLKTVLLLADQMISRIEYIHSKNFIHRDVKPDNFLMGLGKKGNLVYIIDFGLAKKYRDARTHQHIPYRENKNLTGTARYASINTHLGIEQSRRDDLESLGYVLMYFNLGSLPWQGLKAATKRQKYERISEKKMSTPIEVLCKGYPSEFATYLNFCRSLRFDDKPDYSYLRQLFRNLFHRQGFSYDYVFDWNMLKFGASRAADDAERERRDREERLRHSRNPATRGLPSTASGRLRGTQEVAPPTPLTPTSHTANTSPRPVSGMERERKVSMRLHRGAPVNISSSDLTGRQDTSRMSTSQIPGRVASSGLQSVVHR

[17] = target: Serine/threonine-protein kinase SBK1 (Homo sapiens) (UniProt Q52WX2); details: Compound concentration 1000.0 nM
[18] = target: Receptor tyrosine-protein kinase erbB-3 (Homo sapiens) (UniProt P21860); details: Compound concentration 1000.0 nM
[19] = target: Serine/threonine-protein kinase Chk2 (Homo sapiens) (UniProt O96017); details: Compound concentration 1000.0 nM
Sequence of Serine/threonine-protein kinase Chk2 (Homo sapiens) (O96017 whole entry): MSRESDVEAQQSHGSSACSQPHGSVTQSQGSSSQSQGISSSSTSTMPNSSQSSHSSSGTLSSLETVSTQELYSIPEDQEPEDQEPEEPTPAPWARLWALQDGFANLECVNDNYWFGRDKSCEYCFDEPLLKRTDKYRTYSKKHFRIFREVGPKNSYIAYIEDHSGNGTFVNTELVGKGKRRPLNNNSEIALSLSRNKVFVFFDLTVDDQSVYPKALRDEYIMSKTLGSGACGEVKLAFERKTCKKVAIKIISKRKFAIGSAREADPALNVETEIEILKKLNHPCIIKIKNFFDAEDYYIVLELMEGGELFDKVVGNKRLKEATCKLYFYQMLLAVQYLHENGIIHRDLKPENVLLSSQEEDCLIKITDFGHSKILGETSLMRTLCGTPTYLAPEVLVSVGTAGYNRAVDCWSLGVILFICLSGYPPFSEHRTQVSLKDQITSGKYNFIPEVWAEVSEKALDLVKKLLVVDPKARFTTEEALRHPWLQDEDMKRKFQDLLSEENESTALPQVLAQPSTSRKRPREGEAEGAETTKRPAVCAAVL

[20] = target: Mitogen-activated protein kinase 13 (Homo sapiens) (UniProt O15264); details: Compound concentration 1000.0 nM
Sequence of Mitogen-activated protein kinase 13 (Homo sapiens) (O15264 whole entry): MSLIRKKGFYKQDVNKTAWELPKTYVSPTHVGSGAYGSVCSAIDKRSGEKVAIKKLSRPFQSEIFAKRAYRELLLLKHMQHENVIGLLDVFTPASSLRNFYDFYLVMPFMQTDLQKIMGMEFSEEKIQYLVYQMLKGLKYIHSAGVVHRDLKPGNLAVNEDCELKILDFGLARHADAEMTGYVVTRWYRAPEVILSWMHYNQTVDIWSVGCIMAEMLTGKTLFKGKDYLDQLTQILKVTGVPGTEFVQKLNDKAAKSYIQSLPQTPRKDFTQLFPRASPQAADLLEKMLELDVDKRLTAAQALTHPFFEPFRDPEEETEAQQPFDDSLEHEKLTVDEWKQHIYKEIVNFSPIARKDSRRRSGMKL

[21] = target: Cyclin-dependent kinase 4 (Homo sapiens) (UniProt P11802); details: Compound concentration 1000.0 nM
[22] = target: Dual specificity protein kinase TTK (Homo sapiens) (UniProt P33981); details: Compound concentration 1000.0 nM
[23] = target: Activin receptor type-1-like (Homo sapiens) (UniProt P37023); details: Compound concentration 1000.0 nM
[24] = target: Citron Rho-interacting kinase (Homo sapiens) (UniProt O14578); details: Compound concentration 1000.0 nM
[25] = target: Interleukin-1 receptor-associated kinase 3 (Homo sapiens) (UniProt Q9Y616); details: Compound concentration 1000.0 nM
Sequence of Interleukin-1 receptor-associated kinase 3 (Homo sapiens) (Q9Y616 whole entry): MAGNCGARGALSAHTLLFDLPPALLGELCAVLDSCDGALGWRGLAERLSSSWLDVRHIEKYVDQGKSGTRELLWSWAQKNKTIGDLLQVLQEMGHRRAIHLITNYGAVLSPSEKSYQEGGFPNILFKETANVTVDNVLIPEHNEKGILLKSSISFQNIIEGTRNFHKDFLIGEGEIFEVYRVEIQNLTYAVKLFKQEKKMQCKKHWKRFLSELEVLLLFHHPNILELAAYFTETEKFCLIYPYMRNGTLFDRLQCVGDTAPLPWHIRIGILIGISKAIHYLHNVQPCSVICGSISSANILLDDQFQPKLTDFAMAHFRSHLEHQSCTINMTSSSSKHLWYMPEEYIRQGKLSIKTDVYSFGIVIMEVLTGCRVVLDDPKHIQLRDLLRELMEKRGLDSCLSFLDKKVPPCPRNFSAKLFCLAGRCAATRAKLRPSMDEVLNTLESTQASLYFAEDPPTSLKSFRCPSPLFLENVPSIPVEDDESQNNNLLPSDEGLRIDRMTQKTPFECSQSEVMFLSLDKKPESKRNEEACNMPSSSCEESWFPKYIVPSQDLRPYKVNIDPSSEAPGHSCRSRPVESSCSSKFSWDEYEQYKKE

[26] = target: Dual specificity mitogen-activated protein kinase kinase 3 (Homo sapiens) (UniProt P46734); details: Compound concentration 1000.0 nM
[27] = tested on: Tyrosine-protein kinase ABL1 (Homo sapiens), P00519 [F317I]; details: Compound concentration 1000.0 nM
[28] = target: Phosphorylase b kinase gamma catalytic chain, skeletal muscle/heart isoform (Homo sapiens) (UniProt Q16816); details: Compound concentration 1000.0 nM
[29] = target: Beta-3 adrenergic receptor (Homo sapiens) (UniProt P13945); details: Compound concentration 10.0 uM
Sequence of Beta-3 adrenergic receptor (Homo sapiens) (P13945 whole entry, looked up): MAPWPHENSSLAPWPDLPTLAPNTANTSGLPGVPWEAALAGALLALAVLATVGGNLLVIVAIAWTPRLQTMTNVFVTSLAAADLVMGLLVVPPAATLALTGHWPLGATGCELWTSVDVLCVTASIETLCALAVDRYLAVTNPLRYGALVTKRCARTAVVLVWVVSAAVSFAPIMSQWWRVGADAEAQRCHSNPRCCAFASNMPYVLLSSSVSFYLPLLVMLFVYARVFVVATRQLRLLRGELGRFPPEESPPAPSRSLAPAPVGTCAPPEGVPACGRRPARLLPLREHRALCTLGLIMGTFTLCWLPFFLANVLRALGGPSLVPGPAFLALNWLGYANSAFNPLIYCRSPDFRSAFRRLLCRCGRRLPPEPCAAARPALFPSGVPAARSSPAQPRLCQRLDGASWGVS

[30] = target: 5'-AMP-activated protein kinase catalytic subunit alpha-1 (Homo sapiens) (UniProt Q13131); details: Compound concentration 1000.0 nM
[31] = tested on: Tyrosine-protein kinase ABL1 (Homo sapiens), P00519 [T315I]; details: Compound concentration 1000.0 nM
[32] = target: Serine/threonine-protein kinase RIO1 (Homo sapiens) (UniProt Q9BRS2); details: Compound concentration 1000.0 nM
[33] = target: Serine/threonine-protein kinase 16 (Homo sapiens) (UniProt O75716); details: Compound concentration 1000.0 nM
[34] = target: Ribosomal protein S6 kinase alpha-3 (Homo sapiens) (UniProt P51812); details: Compound concentration 1000.0 nM
Sequence of Ribosomal protein S6 kinase alpha-3 (Homo sapiens) (P51812 whole entry): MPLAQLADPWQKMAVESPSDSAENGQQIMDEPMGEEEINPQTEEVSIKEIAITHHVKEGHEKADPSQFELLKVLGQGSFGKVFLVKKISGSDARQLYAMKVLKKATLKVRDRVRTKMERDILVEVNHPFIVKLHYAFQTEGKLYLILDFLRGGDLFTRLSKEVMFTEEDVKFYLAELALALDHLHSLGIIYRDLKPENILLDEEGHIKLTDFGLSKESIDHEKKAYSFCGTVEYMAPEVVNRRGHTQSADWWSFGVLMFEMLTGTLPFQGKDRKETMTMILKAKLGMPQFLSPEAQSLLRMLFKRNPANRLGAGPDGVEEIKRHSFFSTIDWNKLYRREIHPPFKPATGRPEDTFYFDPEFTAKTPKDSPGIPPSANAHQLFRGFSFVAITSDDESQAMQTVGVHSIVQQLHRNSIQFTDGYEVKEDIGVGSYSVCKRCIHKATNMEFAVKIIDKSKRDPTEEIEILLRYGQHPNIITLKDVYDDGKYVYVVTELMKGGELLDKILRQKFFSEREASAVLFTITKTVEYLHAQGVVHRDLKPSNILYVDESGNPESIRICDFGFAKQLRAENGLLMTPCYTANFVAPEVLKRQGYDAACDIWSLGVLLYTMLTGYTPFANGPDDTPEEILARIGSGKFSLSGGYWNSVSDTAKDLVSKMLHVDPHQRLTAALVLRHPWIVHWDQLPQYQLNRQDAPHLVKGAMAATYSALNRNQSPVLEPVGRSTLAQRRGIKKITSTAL

[35] = tested on: Epidermal growth factor receptor (Homo sapiens), P00533 [G719C]; details: Compound concentration 1000.0 nM
[36] = target: Mitogen-activated protein kinase 14 (Homo sapiens) (UniProt Q16539); details: Compound concentration 1000.0 nM
[37] = tested on: Receptor-type tyrosine-protein kinase FLT3 (Homo sapiens), P36888 [D835V]; details: Compound concentration 1000.0 nM
[38] = target: Transient receptor potential cation channel subfamily M member 6 (Homo sapiens) (UniProt Q9BX84); details: Compound concentration 1000.0 nM
[39] = target: Serine/threonine-protein kinase WNK2 (Homo sapiens) (UniProt Q9Y3S1); details: Compound concentration 1000.0 nM
[40] = target: Phosphatidylinositol 4-kinase beta (Homo sapiens) (UniProt Q9UBF8); details: Compound concentration 1000.0 nM
[41] = target: Serine/threonine-protein kinase Nek2 (Homo sapiens) (UniProt P51955); details: Compound concentration 1000.0 nM
Sequence of Serine/threonine-protein kinase Nek2 (Homo sapiens) (P51955 whole entry): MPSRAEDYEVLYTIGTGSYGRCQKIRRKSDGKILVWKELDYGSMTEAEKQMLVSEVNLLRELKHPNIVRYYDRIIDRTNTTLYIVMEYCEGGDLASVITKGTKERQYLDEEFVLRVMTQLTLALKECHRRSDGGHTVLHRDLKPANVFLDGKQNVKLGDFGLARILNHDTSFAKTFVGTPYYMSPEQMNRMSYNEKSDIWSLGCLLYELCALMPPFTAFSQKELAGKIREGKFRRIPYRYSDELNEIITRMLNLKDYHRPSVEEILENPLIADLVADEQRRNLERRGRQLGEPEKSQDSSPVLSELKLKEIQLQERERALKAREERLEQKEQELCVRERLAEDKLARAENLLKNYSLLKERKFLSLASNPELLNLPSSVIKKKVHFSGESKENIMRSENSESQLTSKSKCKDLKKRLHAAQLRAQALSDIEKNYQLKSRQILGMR

[42] = target: NT-3 growth factor receptor (Homo sapiens) (UniProt Q16288); details: Compound concentration 1000.0 nM
[43] = target: LIM domain kinase 1 (Homo sapiens) (UniProt P53667); details: Compound concentration 1000.0 nM
Sequence of LIM domain kinase 1 (Homo sapiens) (P53667 whole entry, looked up, the tested form may be a part, canonical isoform): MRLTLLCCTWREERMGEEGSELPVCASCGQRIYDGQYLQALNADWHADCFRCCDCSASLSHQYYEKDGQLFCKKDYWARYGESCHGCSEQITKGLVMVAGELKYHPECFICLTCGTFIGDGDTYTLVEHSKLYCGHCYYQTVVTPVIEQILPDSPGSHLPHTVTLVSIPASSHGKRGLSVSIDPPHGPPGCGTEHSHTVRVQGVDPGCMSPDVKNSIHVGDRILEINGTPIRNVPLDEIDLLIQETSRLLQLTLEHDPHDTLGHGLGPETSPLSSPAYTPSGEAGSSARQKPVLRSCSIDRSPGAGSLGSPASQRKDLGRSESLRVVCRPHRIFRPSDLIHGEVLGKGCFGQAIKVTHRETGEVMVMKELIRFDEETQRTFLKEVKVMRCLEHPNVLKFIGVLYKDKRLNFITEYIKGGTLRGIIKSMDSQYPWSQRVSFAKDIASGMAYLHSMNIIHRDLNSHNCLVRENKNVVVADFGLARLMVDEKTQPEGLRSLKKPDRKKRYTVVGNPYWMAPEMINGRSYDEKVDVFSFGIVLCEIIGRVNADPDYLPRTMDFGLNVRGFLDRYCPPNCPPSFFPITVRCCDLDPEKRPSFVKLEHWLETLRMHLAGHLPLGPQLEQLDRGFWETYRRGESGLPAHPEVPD

[44] = target: Casein kinase I isoform gamma-1 (Homo sapiens) (UniProt Q9HCP0); details: Compound concentration 1000.0 nM
[45] = target: Activin receptor type-1B (Homo sapiens) (UniProt P36896); details: Compound concentration 1000.0 nM

Cc1nc(N2CC[C@@H](O)C2)ncc1-c1cc(C(F)(F)F)cc2[nH]ncc12 [TP-004]
inactive: inhibition [1] -1.83% | residual activity [2] 94% | residual activity [3] 100% | residual activity [4] 100% | residual activity [5] 100% | residual activity [6] 86% | residual activity [7] 94% | inhibition [8] 2.18% | residual activity [9] 87% | residual activity [10] 100% | residual activity [11] 61% | inhibition [12] 6.06% | residual activity [13] 100% | residual activity [14] 90% | residual activity [15] 100% | residual activity [16] 95% | residual activity [17] 82% | residual activity [18] 100% | residual activity [19] 96% | residual activity [20] 100% | residual activity [21] 88% | residual activity [22] 100% | residual activity [23] 100% | residual activity [24] 82% | residual activity [25] 85% | residual activity [26] 90% | residual activity [27] 73% | residual activity [28] 81% | inhibition [29] 20.7% | residual activity [30] 89% | residual activity [31] 78% | residual activity [32] 100% | residual activity [33] 92% | residual activity [35] 100% | residual activity [36] 100% | residual activity [37] 58% | residual activity [38] 52% | residual activity [40] 53% | residual activity [41] 92% | residual activity [42] 66% | residual activity [43] 85% | residual activity [44] 78% | residual activity [45] 100%
active: residual activity [34] 48% | residual activity [39] 41%

Source: ChEMBL document CHEMBL4507303, “Data for DCP probe TP-004” (2021)
